In PubChem BioAssay AID1996:
Converted amounts (≈) assume the structure as drawn.

Conditions: buffer; pH 7.4; 200.0 µM

Row | SMILES | solubility kinetic [µg/mL]
1 | O=C(NCCO)C(=O)Nc1cc2c3c(c1)CCC(=O)N3CCC2 | > 47.6
2 | Cc1ccc(C(=O)N2CCn3c(C)ccc3C2C)cc1 (stereo unspecified) | 23.1 (≈ 86.1 µM)
3 | CN(C)S(=O)(=O)c1cccc(C(=O)OCC(=O)N2CCCC2=O)c1 | > 53.2
4 | CC1CCCC(NC(=O)COC(=O)c2cc(=O)[nH]c3ccccc23)C1C (stereo unspecified) | 4.6 (≈ 12.9 µM)
5 | O=S(=O)(NCCC1CC1(Cl)Cl)c1ccccc1 (stereo unspecified) | 39.8 (≈ 135 µM)
6 | Cl.O=C(CCl)N1CCN(CC(=O)N2CCCC2)CC1 | > 46.5
7 | O=C(Nc1ccccc1O)c1ccc(C(=O)c2ccccc2)o1 | < 0.7
8 | O=C(O)c1cccc(S(=O)(=O)Nc2ccc(-c3ccccc3)cc2)c1 | > 53
9 | CCOCCOc1cccc(C(=O)NC(C)c2ccc3ccccc3c2)c1 (stereo unspecified) | 1.6 (≈ 4.4 µM)
10 | CC(C)(C)NC(=S)N1CCn2cccc2C1c1cccnc1 (stereo unspecified) | 33.5 (≈ 107 µM)
11 | O=C(NCCNC(=O)c1ccccc1F)c1ccco1.O=C(O)C(=O)O | 51.5
12 | COc1ccc2c(c1)C1OCCC1C(c1ccco1)N2 (stereo unspecified) | > 40.7
13 | Cc1cc(C)nc(SC2CC(=O)N(c3ccc(C)c(C)c3)C2=O)n1 (stereo unspecified) | 19.7 (≈ 57.7 µM)
14 | Cc1ccsc1C(=O)N(C)C1CCS(=O)(=O)C1 (stereo unspecified) | > 41
15 | CC(NCC#Cc1ccccc1)C(O)c1ccccc1.Cl (stereo unspecified) | 44.8
16 | COc1ccc(N2CCN(CC(=O)c3ccc(Cl)cc3)CC2)cc1 | 45.7 (≈ 133 µM)
17 | NC(=O)c1ccc(S(=O)(=O)N2CCSCC2)cc1 | 37.9 (≈ 132 µM)
18 | Cc1ccc(S(=O)(=O)N2CCC[C@H]2C(=O)NCc2ccccc2Cl)cc1 | > 58.9
19 | CCn1c(SCC(=O)N2CCCC2)nc2ccccc21 | > 43.4
20 | CCCc1c(C)nc(N2CCN(c3ccccc3OC)CC2)[nH]c1=O | 2.5 (≈ 7.3 µM)
21 | O=C(NCc1csc(-c2cccs2)n1)C1CC1 | 34.3 (≈ 130 µM)
22 | Cc1cc(C)c(C)c(S(=O)(=O)NC(C(=O)O)C(C)C)c1C (stereo unspecified) | > 47
23 | COc1ccc2cc(Br)ccc2c1CC(=O)N(C)C | 21.1 (≈ 65.5 µM)
24 | O=C(CNC(=O)c1ccccc1F)OCC(=O)c1c[nH]c2ccccc12 | 43 (≈ 121 µM)
25 | Cc1ccc(-c2csc(NC(=O)c3cccc(C)c3)c2C(=O)O)cc1 | > 52.7

Row | SMILES | solubility kinetic [µg/mL]
26 | Cn1c(N)c(C(=O)COC(=O)COc2cccc(Br)c2)c(=O)n(C)c1=O | 11.3 (≈ 26.5 µM)
27 | CC(NCCc1ccc(O)cc1)C(O)c1ccc(O)cc1.Cl (stereo unspecified) | > 48.6
28 | CN1CCN(C(=O)c2cc([N+](=O)[O-])cc([N+](=O)[O-])c2)CC1 | 31.4 (≈ 107 µM)
29 | C/C(=N/O)c1ccc2ccc3ccccc3c2c1 | 0.6 (≈ 2.55 µM)
30 | CCOC(=O)c1sc(=S)n(-c2ccccc2)c1C | 3.4 (≈ 12.2 µM)
31 | Cc1ccc(C)c(S(=O)(=O)N(C)Cc2cccs2)c1 | 9.9 (≈ 33.5 µM)
32 | CC(NC(=O)CN(C)CC(=O)Nc1cccc(F)c1)c1ccccc1 (stereo unspecified) | > 51.5
33 | O=C(Nc1ccc(Br)cc1)NC1CCCCCCC1 | < 0.3
34 | COc1ccc(C(=O)NC(=S)NC(C)c2ccccc2)cc1 (stereo unspecified) | 2.6 (≈ 8.27 µM)
35 | O=C(CSC(=S)N1CCCC1)c1ccccc1 | < 0.6
36 | CC(CCc1ccccc1)NCCC#N.Cl (stereo unspecified) | > 35.8
37 | Cc1nn(C)c(C)c1NC(=O)CCl.Cl | > 35.7
38 | CCc1ccccc1NC(=O)NCc1ccc2c(c1)OCO2 | 0.7 (≈ 2.35 µM)
39 | Cc1ccc(S(=O)(=O)N2CCN(c3ccccc3)CC2)c(C)c1 | 3 (≈ 9.08 µM)
40 | COc1ccc(Cn2c(C(F)(F)F)ccc(C(N)=O)c2=O)cc1 | 8.2 (≈ 25.1 µM)
41 | COc1cccc(CN(C)C(=O)c2ccc(N3CCCC3)c([N+](=O)[O-])c2)c1 | 21.9 (≈ 59.3 µM)
42 | COc1cccc(CNC(C)C(=O)Nc2ccc(S(=O)(=O)N3CCCC3)cc2)c1 (stereo unspecified) | > 62.6
43 | CC(=O)NCCc1nc2cc(NS(=O)(=O)c3ccccc3)ccc2n1C | > 55.9
44 | CCc1ccc(C(=O)Nc2ccc3c(c2)n(C)c(=O)n3C)cc1 | 5.6 (≈ 18.1 µM)
45 | Cc1cc(C)c(C(N)=O)c(Nc2ccc(F)cc2)n1 | > 38.9
46 | CC(=O)NC(CC(=O)O)c1ccccc1 (stereo unspecified) | > 31.1
47 | Cc1cc(NC(=O)c2c(C)noc2C)no1 | > 33.2
48 | O=C(c1cccc([N+](=O)[O-])c1)N1CC2C3C=CC(C3)C2C1 (stereo unspecified) | > 42.6
49 | O=C(Nc1ccccc1)Nc1nc(-c2ccc(F)c(F)c2)cs1 | < 0.2
50 | C=CCSc1ncccc1C(=O)NCCc1ccc(Cl)cc1 | 3.6 (≈ 10.8 µM)

Row | SMILES | solubility kinetic [µg/mL]
51 | CCCCc1ccccc1NC(=S)NC1CCCC1 | 30.5 (≈ 110 µM)
52 | Cc1ccc(S(=O)(=O)N2CCC(C(=O)NCCN3CCOCC3)CC2)cc1C | 58.4 (≈ 143 µM)
53 | CCNc1c(NCC)c(=O)c1=O | 23.2 (≈ 138 µM)
54 | COC(=O)c1ccc2[nH]c3c(c2c1)CC(C)CC3 (stereo unspecified) | 0.9 (≈ 3.7 µM)
55 | Cn1cccc1C(=O)NC(=O)COC(=O)c1ccc(S(C)(=O)=O)c([N+](=O)[O-])c1 | 14.7 (≈ 35.9 µM)
56 | CCNC(=O)COC(=O)c1cccc(Br)c1 | 40.8 (≈ 143 µM)
57 | Oc1cccc2ccc(/C=C/c3ccccc3Br)nc12 | < 0.7
58 | NC(=S)N1CCCc2ccccc21 | > 28.8
59 | COc1ccc(NS(=O)(=O)c2ccc(C)cc2)c([N+](=O)[O-])c1 | 44.1 (≈ 137 µM)
60 | CN1CCCN(C(=O)COc2ccc(F)cc2F)CC1 | > 42.6
61 | CC(=O)N1CCN(c2cc(N3CCCC3)c(F)cc2[N+](=O)[O-])CC1 | > 50.5
62 | CN1CCN(c2nnc(-c3ccc(F)cc3)c3ccccc23)CC1 | > 48.4
63 | Clc1ccccc1C1NCc2ccccc2-n2cccc21 (stereo unspecified) | 1.4 (≈ 4.75 µM)
64 | O=C(/C=C/c1ccccc1)OCc1cncs1 | 32.2 (≈ 131 µM)
65 | O=C(CN1CCN(c2ccc(F)cc2)CC1)Nc1ccccc1 | > 47
66 | CC(C)(C)C(=O)N1CCN(c2ccc([N+](=O)[O-])cc2-n2cccc2)CC1 | 1.4 (≈ 3.93 µM)
67 | c1ccc2c(c1)cnc1ccccc12 | 7.7 (≈ 43 µM)
68 | COc1ccc(OCCCCn2c(CO)nc3ccccc32)cc1 | 45.4 (≈ 139 µM)
69 | CC1CCCC(NC(=O)COC(=O)COc2ccc(C#N)cc2)C1C (stereo unspecified) | 45.4 (≈ 132 µM)
70 | Cc1ccccc1NC(=O)C(Cc1ccccc1)n1cccc1 (stereo unspecified) | 7.4 (≈ 24.3 µM)
71 | O=C(CSc1ncnc2c1oc1ccccc12)NC1CCCC1 | 3.4 (≈ 10.4 µM)
72 | N#Cc1ccc(OCC(=O)NCCCn2ccnc2)cc1 | > 42.6
73 | O=C(COC(=O)Cc1ccc(Cl)cc1Cl)NC1CC1 | > 45.3
74 | CC(C)(C)c1ccc(NC(=O)COC(=O)C2CCCC2)cc1 | 13.5 (≈ 44.5 µM)
75 | O=C(CCN1C(=O)c2cccc3cccc(c23)C1=O)NCC1CCCO1 (stereo unspecified) | > 52.9

Row | SMILES | solubility kinetic [µg/mL]
76 | COc1ccccc1C1(O)C(=O)Nc2ccccc21 (stereo unspecified) | > 38.3
77 | Cc1ccc(C(=O)NC2CCN(C(=O)Nc3ccccc3)CC2)cc1 | 4.4 (≈ 13 µM)
78 | O=C(NCCc1ccc(F)cc1)NC12CC3CC(CC(C3)C1)C2 | 6.5 (≈ 20.5 µM)
79 | Cc1ccc(-c2nc3ccc(Cl)cc3c(=O)n2O)cc1 | 42.2 (≈ 147 µM)
80 | N#Cc1cccc(NC(=O)CC2CCCC2)c1 | 33.1 (≈ 145 µM)
81 | CC(=O)Nc1ccc(NC(=O)C(C)OC(=O)C23CC4CC(CC(Cl)(C4)C2)C3)cc1 (stereo unspecified) | 61.5 (≈ 147 µM)
82 | Cc1ccc(NC(=O)C(C)OC(=O)/C=C/c2ccccc2)cc1 (stereo unspecified) | 4 (≈ 12.9 µM)
83 | COC(=O)c1cc(S(=O)(=O)N2CCCCC2C)c[nH]1 (stereo unspecified) | > 43
84 | N#C/C(=C\c1ccccc1)C(=O)Nc1nncs1 | > 38.4
85 | COc1ccc(NS(=O)(=O)c2c(C)[nH]c(=O)[nH]c2=O)cc1OC | > 51.2
86 | Nc1cc(Nc2ccccc2)c2nonc2c1[N+](=O)[O-] | 0.5 (≈ 1.84 µM)
87 | N#CC1(NC(=O)CSc2nc3ccccc3s2)CCCCC1 | 46.4 (≈ 140 µM)
88 | Cc1cc(NC(=O)CSc2nc3c(C)cccc3cc2C)no1 | < 0.2
89 | CC1CCCC(NC(=O)c2ccc(COc3ccccc3)o2)C1C (stereo unspecified) | 2.2 (≈ 6.72 µM)
90 | COc1ccc(C)cc1NC(=O)C1CCN(S(C)(=O)=O)CC1 | > 49
91 | Cc1cccc(C)c1NC(=O)CNC(=O)C1CCCC1 | > 41.2
92 | O=c1c2cc(Cl)cc(Cl)c2nc2n1CCC2 | 35 (≈ 137 µM)
93 | N=C1/C(=C/c2cccn2Cc2ccc(F)cc2)C(=O)N=C2SC=CN12 | < 0.2
94 | Nc1c(NC=O)c(=O)n(Cc2ccccc2)c(=O)n1Cc1ccccc1 | 52.1 (≈ 149 µM)
95 | Cc1ccccc1NC(=O)CSc1ccncc1 | 36 (≈ 139 µM)
96 | O=c1c2[nH]c3ccc(Br)cc3c2ncn1Cc1ccncc1 | 0.4 (≈ 1.13 µM)
97 | CN(C)c1ccc(Nc2nc(N)c3ccccc3n2)cc1.Cl | > 47.4
98 | S=C(NCC1(c2ccccc2)CCCC1)Nc1ccccc1 | 0.8 (≈ 2.58 µM)
99 | C=CCn1c(=O)c2ccccc2n2c(SCC(=O)N(C)C)nnc12 | > 51.5
100 | O=C(Nc1nc2ccccc2[nH]1)c1ccccc1OC(F)F | 8.9 (≈ 29.3 µM)

Row | SMILES | solubility kinetic [µg/mL]
101 | CC(C)(C)C(=O)NC1CC2CCCC(C1)N2C(=O)Nc1ccccc1F (stereo unspecified) | 6.1 (≈ 16.9 µM)
102 | Cc1ccc(C)c(NC(=S)N(C)C)c1 | > 31.2
103 | CSc1nsc(SCC(=O)N2CCCCC2)n1 | > 43.4
104 | O=C(NCc1ccc(F)cc1)c1cccnc1 | > 34.5
105 | CC1=C(C(=O)N(C)C)C(c2ccc(N3CCOCC3)cc2)NC(=O)N1 (stereo unspecified) | 49.8 (≈ 145 µM)
106 | Fc1ccc(CNC2CCN(Cc3ccccc3)CC2)cc1 | 35.7 (≈ 120 µM)
107 | Cc1ccccc1-n1c(O)c(/C=N/NC(=O)c2ccncc2)c(=O)[nH]c1=O | > 54.8
108 | CCOc1ccc2[nH]c3c(NCCOC)ncnc3c2c1 | > 42.9
109 | O=C1CSC(c2cccnc2)N1Cc1cccnc1 (stereo unspecified) | 40.2 (≈ 148 µM)
110 | COCCCn1c(=S)[nH]c(C)c(C)c1=O | > 34.2
111 | COC(=O)c1cccc(NC(=O)CSCc2ccccc2)c1 | 35.6 (≈ 113 µM)
112 | CCOP(=O)(c1ccc(N(C)C)cc1)C(O)c1ccc(OC)cc1 (stereo unspecified) | 48.8 (≈ 140 µM)
113 | NC(=O)C1Cc2ccccc2CN1S(=O)(=O)c1cccs1 (stereo unspecified) | > 48.4
114 | Cc1ccc(NC(=S)c2ccncc2)cc1 | 33.5 (≈ 147 µM)
115 | O=C(COC(=O)c1cc(Br)ccc1Cl)NC1CCCC1 | 5.6 (≈ 15.5 µM)
116 | O=C(Nc1ccc(-c2cnco2)cc1)c1ccccc1 | < 0.3
117 | O=C(O)C1CC1C(=O)Nc1nc2c(Cl)cccc2s1 (stereo unspecified) | > 44.5
118 | COc1cccc(CNC(=O)c2cccnc2Sc2ccccc2)c1 | 5.6 (≈ 16 µM)
119 | Cc1cnc(NC(=O)c2cc(S(=O)(=O)N(C)C)ccc2N2CCCC2)s1 | 4.7 (≈ 11.9 µM)
120 | Cc1cc(C(=O)Nc2cccc(S(=O)(=O)N3CCOCC3)c2)c2ccccc2n1 | 13.1 (≈ 31.8 µM)
121 | O=CN1CCN(C(=S)Nc2ccc(OC(F)F)cc2)CC1 | > 47.3
